# From ChEMBL document CHEMBL3393032, “Synthesis of oolongtheanins and their inhibitory activity on micellar cholesterol solubility in vitro” (Bioorg Med Chem Lett, 2015)
# Test: Inhibition of micellar solubility of cholesterol assessed as cholesterol solubility at 10 g/L using [4-14C]cholesterol incubated at 37 degC for 1 hr by liquid scintillation counting method
# Assay type: physicochemical
# Set-up: scale not given: the % may be the effect or the level left
row,Activity [%],Compound
1,26.39,O=C1C(O)=C[C@@]2([C@H]3Oc4cc(O)cc(O)c4C[C@H]3O)Oc3c(O)c(O)cc([C@H]4Oc5cc(O)cc(O)c5C[C@H]4O)c3[C@@H]12
2,1.4,O=C(O[C@@H]1Cc2c(O)cc(O)cc2O[C@@H]1c1cc(O)c(O)c2c1[C@H]1C(=O)C(O)=C[C@@]1([C@H]1Oc3cc(O)cc(O)c3C[C@H]1OC(=O)c1cc(O)c(O)c(O)c1)O2)c1cc(O)c(O)c(O)c1
